From patent US20050136472A1, “Methods for identification of ligands or modulators of 2871 receptor, a G-protein coupled receptor” (Millennium Pharmaceuticals, Inc., priority 2001, published 2005)

Key:
2871 receptor [1] = molecular target: T1, 2871 receptor (Homo sapiens, UniProt Q9BY21); experiment: FLIPR calcium mobilization screening of 2871 receptor-transfected cells; format: cell-based; conditions: HEK293G16 cells stably transfected with 2871 receptor protein; for calcium mobilization response: concentration response; for EC50: calcium mobilization
T1 construct: encodes a full length 2871 receptor protein; myc (on only one of the two constructs made); expressed in transfected cells
T1 sequence (Q9BY21 whole entry): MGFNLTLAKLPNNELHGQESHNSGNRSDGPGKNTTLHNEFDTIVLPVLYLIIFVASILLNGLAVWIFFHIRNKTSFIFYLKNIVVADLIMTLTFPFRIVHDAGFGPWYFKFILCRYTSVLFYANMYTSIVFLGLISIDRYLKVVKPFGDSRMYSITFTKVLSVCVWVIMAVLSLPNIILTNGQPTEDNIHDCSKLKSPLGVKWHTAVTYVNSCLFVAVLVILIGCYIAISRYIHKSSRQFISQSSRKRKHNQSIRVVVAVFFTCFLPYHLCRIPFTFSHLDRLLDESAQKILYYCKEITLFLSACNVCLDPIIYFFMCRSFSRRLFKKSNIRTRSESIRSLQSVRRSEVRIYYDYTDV
Procedure: The 2871 receptor proteins were expressed in either human embryonic kidney 293 (HEK293) cells or CHO cells, both of which were stably transfected with cDNA encoding the promiscuous G-protein Gal6. A pEF6 vector (invitrogene) including a cDNA of 2871 comprising only the open reading frame (ORF) or 5′-myc tagged ORF was constructed. Cells were transfected with individual construct by lipofectamine (GIBCO) and selected in the presence of 20 ug/ml Blasticidine. After 3 weeks of selection, drug resistant cells were subcloned to obtain individual clones by limited dilution. To isolate cell lines stably expressing the 2871 receptor protein, about 48 clones were typically selected and analyzed. The expression level for myc-tagged 2871 on individual clones was evaluated by using anti-myc Ab staining and FACScan analysis. The expression level for un-tagged 2871 was evaluated by mRNA analysis using standard Taqman techniques and comparing with mRNA expression of myc-tagged 2871 clones. HEK293G16 or CHOG16 cells transfected with the vector alone serve as negative controls. The clones with the highest expression of 2871 as well as good morphology and growth were used for the screening experiments.
The functional screening procedure involves the use of transfected mammalian cells (CHO, HEK293, RBL, L1.2 etc.) containing a cDNA encoding the 2871 peptides to express the receptor on the cell surface. The cells were loaded with a calcium dependent dye such as fura 2 that produces a fluorescent signal when bound to calcium.
Cells were bound to a receptor agonist, such as Ap6A. Any change in fluorescent signal was measured over a defined period of time using a Fluorescence Imaging Plate Reader (FLIPR) (See Sullivan E, et al. Measurement of [Ca^2+] using the Fluorometric Imaging Plate Reader (FLIPR). Methods Mol Biol 1999;114:125-133.)
Cells were exposed to putative ligands and/or modulators and evaluated for agonist induced calcium mobilization. Cell lines transfected with vector alone served as negative controls in the same screening procedures for agents initially identified as putative ligands and/or modulators.
(§1) 2871 receptor-transfectants (IIEK293 (60,000 cells/well) or CHO cells (30,000 cells/well)) were seeded into poly-D-lysine-coated 96-well black-wall, clear-bottom microtiter plates 24 hours prior to assay. Cells were loaded for 1 hour with 2 μM Fluo-3-AM fluorescent indicator dye (Molecular Probes) in assay buffer (Hank's balanced salt solution, 10 mM HEPES, 0.1% BSA, 2.5 mM probenecid), washed three times with assay buffer, and then applied to FLIPR for analysis.
Bio-active lipids were screened at final concentration of 200 nM and 1 μM. Nucleotides were screened at final concentration of 1 μM and 2 μM. The ratio of net change (maximum subtracting minimum) in fluorescence over baseline was used to determine agonist response. Positive responses were confirmed by checking original raw responsive curve.
Concentration response curve data were fitted by Graphpad Prism 2.1 (Graphpad software, Inc., San Diego).

2871 receptor [2] = molecular target: T1, 2871 receptor; experiment: Desensitization of calcium mobilization response by sequential adenosine nucleotide treatment (FLIPR); format: cell-based; conditions: for desensitization of calcium mobilization response to subsequent adenosine nucleotide treatment: additional treatment five to six minutes after initial dose
Procedure: as §1
Furthermore, calcium mobilization response was selectively desensitized treatment with adenosine nucleotide was followed by subsequent treatment with additional adenosine nucleotide. Initial treatment with adenosine nucleotide was followed by additional treatment five to six minutes after initial dose. Treatment and data analysis were as described supra.

Row | Compound | calcium mobilization response (2871 receptor [1]) | EC50 (2871 receptor [1]) [nM] | desensitization of calcium mobilization response to subsequent adenosine nucleotide treatment (2871 receptor [2]) | agonist activity after initial AMP treatment (2871 receptor [2]; second treatment five to six minutes after initial AMP dose)
1 | Nc1ncnc2c1ncn2[C@@H]1O[C@H](COP(=O)(O)OP(=O)(O)O[C@H]2O[C@H](CO)[C@@H](O)[C@H](O)[C@@H]2O)[C@@H](O)[C@H]1O [ADP-mannose] | dose-dependent | – | – | –
2 | Nc1ncnc2c1ncn2C1OC(COP(=O)(O)OP(=O)(O)OCC2OC(O)C(O)C2O)C(O)C1O (stereo not shown) [ADP-ribose, adenosine di-phosphate-ribose] | dose-dependent | 400 to 800 | – | –
3 | Nc1ncnc2c1ncn2[C@@H]1O[C@H](COP(=O)(O)O)[C@@H](O)[C@H]1O [AMP, adenosine monophosphate] | dose-dependent | 500 to 800 | conferred desensitization to subsequent AMP treatment | –
4 | Nc1ncnc2c1ncn2[C@@H]1O[C@H](COP(=O)(O)OP(=O)(O)OC[C@H]2O[C@@H](n3cnc4c(N)ncnc43)[C@H](O)[C@@H]2O)[C@@H](O)[C@H]1O [AP2A] | dose-dependent | – | – | –
5 | Nc1ncnc2c1ncn2[C@@H]1O[C@H](COP(=O)(O)OP(=O)(O)OP(=O)(O)OC[C@H]2O[C@@H](n3cnc4c(N)ncnc43)[C@H](O)[C@@H]2O)[C@@H](O)[C@H]1O [AP3A] | dose-dependent | – | – | –
6 | di-adenosine hexaphosphate [AP6A] | dose-dependent | 200 to 400 | effectively desensitized 2871 receptor to subsequent treatment with either AP6A or AMP | retained agonist activity
7 | di-adenosine pentaphosphate [AP5A] | dose-dependent | 1200 to 1800 | – | –
8 | di-adenosine tetraphosphate [AP4A] | dose-dependent | 1800 to 2000 | – | –
